pEC50: −log10 of the molar value.
How the values were obtained:
full-length human ERα = molecular target: T1, full-length human ERα (Homo sapiens, UniProt P03372); assay: 3X-ERE luciferase reporter gene assay in HepG2 cells, ERα; type: cell-based
T1 sequence (P03372 1-595): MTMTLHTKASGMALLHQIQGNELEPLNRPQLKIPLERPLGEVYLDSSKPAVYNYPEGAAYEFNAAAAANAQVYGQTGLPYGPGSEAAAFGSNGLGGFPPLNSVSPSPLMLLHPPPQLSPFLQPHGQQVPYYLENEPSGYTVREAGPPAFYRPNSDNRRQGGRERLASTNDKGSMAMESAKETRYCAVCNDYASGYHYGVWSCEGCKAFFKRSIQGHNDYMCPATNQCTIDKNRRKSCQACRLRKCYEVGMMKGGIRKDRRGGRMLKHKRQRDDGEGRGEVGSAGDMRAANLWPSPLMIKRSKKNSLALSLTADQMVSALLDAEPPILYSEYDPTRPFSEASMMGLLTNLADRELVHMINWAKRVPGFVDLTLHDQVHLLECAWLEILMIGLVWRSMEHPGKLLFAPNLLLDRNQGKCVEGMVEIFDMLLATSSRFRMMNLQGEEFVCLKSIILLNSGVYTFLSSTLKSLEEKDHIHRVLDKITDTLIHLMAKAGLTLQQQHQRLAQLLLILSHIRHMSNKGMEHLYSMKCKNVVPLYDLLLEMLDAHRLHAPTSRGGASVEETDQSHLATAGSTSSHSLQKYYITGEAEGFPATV

full-length human ERβ = full-length human ERβ (Homo sapiens, UniProt Q92731); assay: 3X-ERE luciferase reporter gene assay in HepG2 cells, ERβ; type: cell-based
Sequence of full-length human ERβ (Q92731 whole entry): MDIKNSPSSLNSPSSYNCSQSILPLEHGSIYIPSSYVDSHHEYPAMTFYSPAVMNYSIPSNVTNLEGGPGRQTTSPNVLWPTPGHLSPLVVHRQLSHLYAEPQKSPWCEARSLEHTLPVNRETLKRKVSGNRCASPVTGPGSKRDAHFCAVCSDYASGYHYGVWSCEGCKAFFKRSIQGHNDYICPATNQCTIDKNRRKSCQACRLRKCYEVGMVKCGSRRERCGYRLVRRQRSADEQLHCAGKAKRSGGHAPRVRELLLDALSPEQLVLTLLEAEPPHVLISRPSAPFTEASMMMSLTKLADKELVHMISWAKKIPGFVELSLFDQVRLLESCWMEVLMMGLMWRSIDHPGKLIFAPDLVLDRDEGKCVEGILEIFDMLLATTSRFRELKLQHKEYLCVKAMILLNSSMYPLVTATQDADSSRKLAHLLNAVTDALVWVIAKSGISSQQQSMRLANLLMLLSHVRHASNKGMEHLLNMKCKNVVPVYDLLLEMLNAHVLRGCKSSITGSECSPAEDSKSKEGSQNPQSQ

O=S(=O)(Oc1ccccc1)[C@H]1C[C@H]2C(c3ccc(O)cc3)=C(c3ccc(O)cc3)[C@@H]1[S+]2[O-] (relative stereo) [Compound 10a]
ERα functional profile (in words) (full-length human ERα): lacks ERα antagonist activity | pEC50 (full-length human ERβ): < 5.00 | ERβ agonist activity (in words) (full-length human ERβ): do not activate ERβ

COc1ccc(OS(=O)(=O)[C@H]2C[C@H]3C(c4ccc(O)cc4)=C(c4ccc(O)cc4)[C@@H]2[S+]3[O-])cc1 (relative stereo) [Compound 10b]
pEC50 (full-length human ERα): < 5.00 | pEC50 (full-length human ERβ): < 5.00

O=S(=O)(Oc1ccc(O)cc1)[C@H]1C[C@H]2C(c3ccc(O)cc3)=C(c3ccc(O)cc3)[C@@H]1[S+]2[O-] (relative stereo) [Compound 10c]
pEC50 (full-length human ERβ): < 5.00

CCOC(=O)[C@@H]1[C@H](C(=O)OCC)[C@@H]2C(c3ccc(O)cc3)=C(c3ccc(O)cc3)[C@H]1[S+]2[O-] (relative stereo) [Compound 10e]
pEC50 (full-length human ERα): < 5.00 | pEC50 (full-length human ERβ): < 5.00

COc1ccc(OS(=O)(=O)[C@H]2C[C@H]3C(c4ccc(O)cc4C)=C(c4ccc(O)cc4C)[C@@H]2[S+]3[O-])cc1 (relative stereo) [Compound 11b]
pEC50 (full-length human ERβ): < 5.00

Cc1cc(O)ccc1C1=C(c2ccc(O)cc2C)[C@H]2[C@@H](S(=O)(=O)Oc3ccccc3F)C[C@@H]1[S+]2[O-] (relative stereo) [Compound 11c]
pEC50 (full-length human ERβ): < 5.00

Cc1cc(O)ccc1C1=C(c2ccc(O)cc2C)[C@H]2[C@@H](S(=O)(=O)Oc3ccccc3Br)C[C@@H]1[S+]2[O-] (relative stereo) [Compound 11e]
pEC50 (full-length human ERβ): < 5.00

Cc1cc(O)ccc1C1=C(c2ccc(O)cc2C)[C@H]2[C@@H](S(=O)(=O)Oc3ccc(F)cc3)C[C@@H]1[S+]2[O-] (relative stereo) [Compound 11f]
pEC50 (full-length human ERβ): < 5.00

Cc1cc(O)ccc1C1=C(c2ccc(O)cc2C)[C@H]2[C@@H](S(=O)(=O)Oc3ccc(Cl)cc3)C[C@@H]1[S+]2[O-] (relative stereo) [Compound 11g]
pEC50 (full-length human ERβ): < 5.00

Cc1cc(O)ccc1C1=C(c2ccc(O)cc2C)[C@H]2[C@@H](S(=O)(=O)Oc3cccc4ccccc34)C[C@@H]1[S+]2[O-] (relative stereo) [Compound 11j]
pEC50 (full-length human ERβ): < 5.00

Cc1cc(C2=C(c3ccc(O)c(C)c3)[C@H]3[C@@H](S(=O)(=O)Oc4ccccc4)C[C@@H]2[S+]3[O-])ccc1O (relative stereo) [Compound 12a]
pEC50 (full-length human ERβ): < 5.00

COc1ccc(OS(=O)(=O)[C@H]2C[C@H]3C(c4ccc(O)c(C)c4)=C(c4ccc(O)c(C)c4)[C@@H]2[S+]3[O-])cc1 (relative stereo) [Compound 12b]
pEC50 (full-length human ERβ): < 5.00

Cc1cc(C2=C(c3ccc(O)c(C)c3)[C@H]3[C@@H](S(=O)(=O)Oc4ccccc4F)C[C@@H]2[S+]3[O-])ccc1O (relative stereo) [Compound 12c]
pEC50 (full-length human ERβ): < 5.00

Cc1cc(C2=C(c3ccc(O)c(C)c3)[C@H]3[C@@H](S(=O)(=O)Oc4ccccc4Cl)C[C@@H]2[S+]3[O-])ccc1O (relative stereo) [Compound 12d]
pEC50 (full-length human ERβ): < 5.00

Cc1cc(C2=C(c3ccc(O)c(C)c3)[C@H]3[C@@H](S(=O)(=O)Oc4ccccc4Br)C[C@@H]2[S+]3[O-])ccc1O (relative stereo) [Compound 12e]
pEC50 (full-length human ERβ): < 5.00

Cc1cc(C2=C(c3ccc(O)c(C)c3)[C@H]3[C@@H](S(=O)(=O)Oc4cccc5ccccc45)C[C@@H]2[S+]3[O-])ccc1O (relative stereo) [Compound 12f]
pEC50 (full-length human ERβ): < 5.00

CCOC(=O)[C@@H]1[C@H](C(=O)OCC)[C@@H]2C(c3ccc(O)c(C)c3)=C(c3ccc(O)c(C)c3)[C@H]1[S+]2[O-] (relative stereo) [Compound 12i]
pEC50 (full-length human ERα): < 5.00 | pEC50 (full-length human ERβ): < 5.00

O=S(=O)(Oc1ccc(O)cc1)[C@H]1C[C@H]2C(c3ccccc3)=C(c3ccccc3)[C@@H]1[S+]2[O-] (relative stereo) [Compound 13]
pEC50 (full-length human ERα): < 5.00 | pEC50 (full-length human ERβ): < 5.00

Cc1ccc(C2=C(c3ccc(C)cc3)[C@H]3[C@@H](S(=O)(=O)Oc4ccc(O)cc4)C[C@@H]2[S+]3[O-])cc1 (relative stereo) [Compound 14]
pEC50 (full-length human ERβ): < 5.00

Reference: PMC3297713 (Journal of Medicinal Chemistry, 2012)
